The results in this text go back to US20110201664A1, “Methods and Compositions for Treatment of Prostate Intraepithelial Neoplasia” (priority 2006, published 2011).

Each structure is given as a SMILES string.

The test system of the experiment is High Grade PIN. The experiment can be described thus: Treatment of a patient with High Grade PIN, repeat prostate biopsy. The following applies: person with High Grade PIN; 225 mg per day once daily, 30 doses; 12 biopsies two weeks after last dose; on Atorvastatin 20 mg daily. Type of experiment: in vivo, human. The method, then: A person was diagnosed as having High Grade PIN. The diagnosis was based upon 12 biopsies which were done in conjunction with ultrasound localization of the biopsy site, with careful recording of there anatomical position. The patient was started on Bexarotene 225 mg per day. The drug was given as a single dose once daily. […] During the period of therapy the patient was on Atorvastatin 20 mg daily. During the therapy, total cholesterol was 183 mg with a reference range <200 mg/dL, triglycerides were 207 with normal being less than 150 mg/dL, thyroid stimulation hormone (TSH) was 0.07 with the reference range 0.4-5.5 mIU/L, T4 total was 7.4 with the normal range 4.5-12.0 mcg/dL. The Hepatic Function Panel was normal as was the complete blood count (CBC). Two weeks following the last dose of Bexarotene the prostate was rebiopsied with 12 biopsies taken. Six of the biopsies were taken from the putative area, the rest in an enlarging target like pattern. The repeat biopsy was negative for the presence of PIN.

In the case of `C=C(c1ccc(C(=O)O)cc1)c1cc2c(cc1C)C(C)(C)CCC2(C)C` [Bexarotene, 4-[1-(5,6,7,8-tetrahydro-3,5,5,8,8-pentamethyl-2-naphthalenyl)ethenyl] benzoic acid], the “Repeat biopsy, presence of PIN” value is “negative”.
